# Results: article PMC2359919, “Molecular targeting of retinoic acid metabolism in neuroblastoma: the role of the CYP26 inhibitor R116010 in vitro and in vivo” (British Journal of Cancer, 2007)
# System: CYP26B1
# Experiment: CYP26B1 mRNA expression in neuroblastoma cells, real-time PCR
# Assay type: cell-based, human
# Conditions: 24 h
# Procedure: SH-SY5Y, SH-EP (N- and S-type cells respectively derived from the parental line SK-N-SH), LAN6, IMR-32, NGP and GIMEN neuroblastoma cell lines were cultured routinely in RPMI 1640 medium containing fetal calf serum (10%) and L-glutamine (2 mM). Cells were grown at 37°C in a humidified incubator containing 5% CO2.
# 13-cis-Retinoic acid and ATRA were dissolved in DMSO and diluted in cell culture medium to obtain final concentrations of 0.1–10 μM. The final concentration of DMSO in all cases was <0.2%. All experiments were performed in dim light and tubes containing retinoids were wrapped in aluminium foil.
# CYP26 short hairpin RNAs (shRNAs) were generated using the siSTRIKE U6 Hairpin Cloning System (Promega, Southampton, UK). The CYP26A1, B1 and Ctrl siRNA sequences were designed using Promega software. The cDNA target sequences were CYP26A1 5′-gcgcatcgagcagaacatt; CYP26B1 5′-gtcgcggagggagaagtat; and Ctrl 5′-gccccgcaattgagaaatg. Sense and antisense strands were annealed and ligated into the linearised psiSTRIKE Neomycin Vector. SH-SY5Y cells were transfected with psi-CYP26A1 or psi-CYP26B1 either singly or in combination, or with psi-Ctrl, in six-well plates (1 μg each) or 75 cm^2 flasks (8.9 μg each) using FuGENE 6 reagent (Roche, Lewes, UK) according to the manufacturer's instructions. After a 6 h transfection, cells were treated with ATRA for 40 h and harvested for RNA isolation and HPLC analysis.
# RNA was reverse-transcribed using Promega's Reverse Transcription System according to the manufacturer's instructions, using random hexamer primers. […] As internal standard, β-actin was measured simultaneously using the endogenous control assay provided by Applied Biosystems. […] Standard curves were generated from serial dilutions of cDNA prepared from cells treated with ATRA (1 μM) and the data were analysed using the GeneAmp Sequence Detection System software. CYP26C1 expression was analysed as described previously ([Taimi et al, 2004]).
SMILES,"Effect on CYP26B1 expression, R116010 alone (SH-SY5Y cells, R116010 1 μM alone)","Effect on CYP26B1 expression, co-incubation with retinoid (SH-SY5Y cells, R116010 1 μM with ATRA or 13cisRA (0.01, 0.1 μM) vs retinoid alone)","CYP26B1 induction (0.1 μM retinoid, panel of neuroblastoma cell lines, relative to SH-SY5Y cells treated with 0.01 μM ATRA)"
C[C@@H]([C@H](c1ccc(Nc2nc3ccccc3s2)cc1)n1ccnc1)N(C)C [R116010],no effect,significantly increased,–
"CC1=C(/C=C/C(C)=C/C=C/C(C)=C/C(=O)O)C(C)(C)CCC1 [ATRA, all-trans-retinoic acid]",–,–,"induced in all cell lines examined, except IMR-32"
